Molecular target: T1, PARS (Mus musculus, UniProt P11103)
T1 construct: endogenous in cells; host or cells: RAW mouse macrophages
Assay: PARS activation in peroxynitrite-treated cultured macrophages (whole-cell 3H-NAD+ assay)
Type: cell-based
Conditions: cultured murine macrophages; for inhibition at 0.1 µM / % PARS inhibition at 100 nM: 100 nM; for inhibition at 0.3 µM / % PARS inhibition at 300 nM: 300 nM
Experimental: Raw mouse macrophages were cultured in DMEM medium with high glucose and supplemented with 10% fetal bovine serum. Cells were used at 80% confluence in 12-well plates. Cells were pretreated with various concentrations (100 nM -1 µM) of an Isoquinoline Derivative for 10 min. Peroxynitrite, a prototypical oxidant which induces DNA single strand breakage, was used to induce PARS activation. Peroxynitrite was diluted in phosphate buffered saline (PBS) (pH 11.0) and added to the cells in a bolus of 50 μl. Cells were then incubated for 20 min. […] After the 20 min incubation, the cells were spun, the medium was aspirated and the cells were resuspended in 0.5 ml assay buffer (56 mM HEPES pH 7.5, 28 mM KCl, 28 mM NaCl, 2 mM MgCl2, 0.01% w/v digitonin and 0.125 μM NAD^+ and 0.5 μCi/ml ^3H-NAD^+). Following an incubation in assay buffer, (10 min at 37° C.), PARS activity was measured as follows: 200 μl ice cold 50% w/v TCA was added and the samples were incubated for 4 hours at 4° C. Samples were then spun (10 min @ 10,000 g) and pellets washed twice with ice cold 5% w/v TCA and solubilized overnight in 250 μl 2% w/v SDS/0.1 N NaOH at 37° C. The contents of the tubes were added to 6.5 ml ScintiSafe Plus scintillation liquid (Fisher Scientific) and radioactivity was determined using a liquid scintillation counter (Wallac, Gaithersburg, Md.).

T1 sequence (P11103 whole entry): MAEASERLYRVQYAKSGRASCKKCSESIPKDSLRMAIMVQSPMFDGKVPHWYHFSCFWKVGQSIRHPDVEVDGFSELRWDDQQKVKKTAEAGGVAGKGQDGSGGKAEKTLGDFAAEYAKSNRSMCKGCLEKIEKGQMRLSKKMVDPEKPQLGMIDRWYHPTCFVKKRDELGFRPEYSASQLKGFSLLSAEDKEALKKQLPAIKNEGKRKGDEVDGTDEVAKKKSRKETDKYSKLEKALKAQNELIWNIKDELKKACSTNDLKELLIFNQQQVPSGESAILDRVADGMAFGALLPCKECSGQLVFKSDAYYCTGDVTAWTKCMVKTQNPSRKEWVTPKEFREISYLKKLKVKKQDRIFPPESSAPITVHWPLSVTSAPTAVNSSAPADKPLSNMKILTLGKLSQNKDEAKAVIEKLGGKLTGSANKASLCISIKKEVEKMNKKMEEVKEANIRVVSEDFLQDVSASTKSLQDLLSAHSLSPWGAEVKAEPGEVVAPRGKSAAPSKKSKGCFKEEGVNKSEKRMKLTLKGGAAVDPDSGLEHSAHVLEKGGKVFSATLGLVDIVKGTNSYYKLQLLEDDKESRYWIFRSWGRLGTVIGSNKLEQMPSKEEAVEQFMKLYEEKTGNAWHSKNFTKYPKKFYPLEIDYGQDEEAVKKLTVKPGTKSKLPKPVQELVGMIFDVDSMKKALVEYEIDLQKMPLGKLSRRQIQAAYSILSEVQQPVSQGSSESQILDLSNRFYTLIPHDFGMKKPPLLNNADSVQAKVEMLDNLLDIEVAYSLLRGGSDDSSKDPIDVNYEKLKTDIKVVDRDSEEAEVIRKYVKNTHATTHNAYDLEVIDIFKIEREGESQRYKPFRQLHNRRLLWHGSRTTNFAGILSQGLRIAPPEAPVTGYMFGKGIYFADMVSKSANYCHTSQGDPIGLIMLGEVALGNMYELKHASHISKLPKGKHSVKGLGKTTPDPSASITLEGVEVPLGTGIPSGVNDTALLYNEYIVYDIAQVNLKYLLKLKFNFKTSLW

## O=c1[nH]c2c(c3ccccc13)C(O)c1ccccc1-2 (racemic) [Compound 3a, (±) 11-hydroxy-5,6-dihydro-5-oxo-11H-indeno[1,2-c]isoquinoline]
  inhibition at 0.1 µM: 8%
  inhibition at 1 µM: 67%

## CC1(O)c2ccccc2-c2[nH]c(=O)c3ccccc3c21 (racemic) [Compound 3b, (±) 11-hydroxy-11-methyl-5,6-dihydro-5-oxo-11H-indeno[1,2-c]isoquinoline]
  inhibition at 0.3 µM: 0%
  inhibition at 1 µM: 25%

## COc1cccc(C2(O)c3ccccc3-c3[nH]c(=O)c4ccccc4c32)c1 (racemic) [Compound 3c, (±) 11-hydroxy-11-(m-methoxyphenyl)-5,6-dihydro-5-oxo-11H-indeno[1,2-c]isoquinoline]
  inhibition at 0.3 µM: 9%
  inhibition at 1 µM: 21%

## O=c1[nH]c2c(c3ccccc13)C(Br)c1ccccc1-2 (racemic) [Compound 4b, (±) 11-bromo-5,6-dihydro-5-oxo-11H-indeno[1,2-c]isoquinoline]
  inhibition at 0.1 µM: 51%
  inhibition at 1 µM: 88%

## CN(C)C1c2ccccc2-c2[nH]c(=O)c3ccccc3c21 (racemic) [Compound 5a, (±) 11-N,N-dimethylamino-5,6-dihydro-5-oxo-11H-indeno[1,2-c]isoquinoline]
  % PARS inhibition at 100 nM: 10%
  % PARS inhibition at 1 μM: 55%

## CCN(CC)C1c2ccccc2-c2[nH]c(=O)c3ccccc3c21 (racemic) [Compound 5b, (±) 11diethylamino-5,6-dihydro-5-oxo-11H-indeno[1,2-c]isoquinoline]
  inhibition at 0.1 µM: 0%
  inhibition at 1 µM: 33%

## CN1CCN(C2c3ccccc3-c3[nH]c(=O)c4ccccc4c32)CC1 (racemic) [Compound 5c, (±) 11-(N-methylpiperazin)-5,6-dihydro-5-oxo-11H-indeno[1,2-c]isoquinoline]
  % PARS inhibition at 100 nM: 0%
  % PARS inhibition at 1 μM: 24%

## O=c1[nH]c2c(c3ccccc13)C(N1CCOCC1)c1ccccc1-2 (racemic) [Compound 5e, (±) 11-morpholino-5,6-dihydro-5-oxo-11H-indeno[1,2-c]isoquinoline]
  inhibition at 0.1 µM: 0%
  inhibition at 1 µM: 21%

## O=C1c2ccccc2-c2[nH]c(=O)c3ccccc3c21 [Compound 2, 5,6-dihydro-5,11-diketo-11H-indeno[1,2-c]isoquinoline]
  inhibition at 0.1 µM: 16%
  inhibition at 1 µM: 60%

## O=c1[nH]c2c(c3ccccc13)C(N1CCCCC1)c1ccccc1-2 (stereo not shown) [Compound 5d, 11-(piperidin)-5,6-dihydro-5-oxo-11H-indeno[1,2-c]isoquinoline]
  % PARS inhibition at 100 nM: 0%
  % PARS inhibition at 1 μM: 48%

## O=c1[nH]c2c(c3ccccc13)Cc1ccccc1-2 [Compound 6, 5,6-dihydro-5-oxo-11H-indeno[1,2-c]isoquinoline]
  inhibition at 0.1 µM: 30%
  inhibition at 1 µM: 65%

## O=c1[nH]c2c(c3ccccc13)Cc1cc(S(=O)(=O)Cl)ccc1-2 [Compound 7, 9-chlorosulfonyl-5,6-dihydro-5-oxo-11H-indeno[1,2-c]isoquinoline]
  inhibition at 0.1 µM: 0%
  inhibition at 1 µM: 50%

## CN1CCN(S(=O)(=O)c2ccc3c(c2)Cc2c-3[nH]c(=O)c3ccccc23)CC1 [Compound 8a, 9-[N-(4-methylpiperazine-1-yl)sulphonyl]-5,6-dihydro-5-oxo-11H-indeno-[1,2-c]isoquinoline]
  % PARS inhibition at 300 nM: 47%

## O=c1[nH]c2c(c3ccccc13)Cc1cc(S(=O)(=O)N3CCN(CCO)CC3)ccc1-2 [Compound 8c, 9-[N-4-(2-hydroxyethylpiperazino-1-yl)-sulphonyl]-5,6-dihydro-5-oxo-1H-indeno-[1,2-c]isoquinoline]
  % PARS inhibition at 300 nM: 27%

## O=c1[nH]c2c(c3ccccc13)Cc1cc(S(=O)(=O)n3ccnc3)ccc1-2 [Compound 8d, 9-[N-(imidazolo-1-yl)sulphonyl]-5,6-dihydro-5-oxo-11H-isoquinoline]
  % PARS inhibition at 100 nM: 77%
  % PARS inhibition at 300 nM: 82%
